Measured values reported in patent US20230381273A1, “NANOPARTICLE IN WHICH ANTIBACTERIAL PEPTIDE IS ENCAPSULATED WITH CHITOSAN AND USE THEREOF” (NATIONAL MARINE BIODIVERSITY INSTITUTE OF KOREA, priority 2022, published 2023).
Values after ≈ are worked out from the molar mass of the structure shown. Peptide text beside a SMILES is read from it.

Assays:
Format in all cases: cell-based
[1] = MTT cell viability assay (cytotoxicity); conditions: human, HEK293 cells
Method: After treating HEK293 cells with octominin-CNP and octominin, MTT (3-(4,5-dimethylthiazol-2-yl)-2,5-diphenyltetrazolium bromide) assay was performed to confirm cell viability.
First, HEK293 cells were cultured using DMEM (Dulbecco's modified Eagle's medium (Sigma-Aldrich, Munich, Germany)) containing 10% (v/v) fetal bovine serum (FBS, (Sigma-Aldrich, Munich, Germany)) and antibiotic-antimycotic (Thermo Fisher Scientific, Waltham, MA, USA). In addition, it was cultured for 24 hours under humidified conditions of 5% CO2 and 37° C. The cells were collected and seeded in a 96-well microplate at a cell density of 2.0×10^5 cells/mL (100 μL/well) and allowed to adhere to the well for 12 hours. The culture medium was then replaced, and they were treated with octominin-CNP (0 to 400 μg/mL) or octominin (0 to 400 μg/mL). After 24 hours of culture, the culture medium was replaced with fresh medium (90 μL), and 10 μL of MTT ([…]) was added to each well, followed by incubation at 37° C. for 4 hours. Then, 50 μL of DMSO was added to the wells in which the culture medium was eradicated to solubilize the resulting formazan dye. Their absorbances were measured at 595 nm using a microplate spectrophotometer (Bio-Rad, Saint Louis, (MO, USA)).

Acinetobacter baumannii = test system: Acinetobacter baumannii
Method: (§1) Prior to confirming the antibacterial and antifungal activity of octominin-CNP or free octominin, for the antibacterial activity of octominin against Acinetobacter baumannii (A. baumannii) through preliminary analysis, it was confirmed that minimum inhibitory concentration (MIC) was 5 μg/mL, and the minimum bactericidal concentration (MBC) was 10 μg/mL. In addition, for the antifungal activity against Candida albicans (C. albicans), it was confirmed that the MIC was 50 μg/mL and the minimum fungicidal concentration (MFC) was 200 μg/mL. Accordingly, the antibacterial and antifungal activities of octominin-CNP and free octominin against A. baumannii and C. albicans were confirmed at the MIC and MBC/MFC peptide concentrations.

Candida albicans = test system: Candida albicans
Method: as §1

minimum inhibitory concentration (MIC) (Acinetobacter baumannii): 5 µg/mL (≈ 1.9 µM)
MIC (Candida albicans): 50 µg/mL (≈ 19 µM)
SMILES: CC[C@H](C)[C@H](NC(=O)[C@H](C)NC(=O)[C@H](CCCCN)NC(=O)CNC(=O)[C@H](C)NC(=O)[C@H](Cc1c[nH]cn1)NC(=O)[C@@H](NC(=O)[C@H](C)NC(=O)CNC(=O)[C@H](CCCNC(=N)N)NC(=O)[C@@H](NC(=O)[C@H](CC(C)C)NC(=O)[C@H](Cc1c[nH]c2ccccc12)NC(=O)CN)[C@@H](C)CC)[C@@H](C)CC)C(=O)N[C@@H](Cc1c[nH]cn1)C(=O)NCC(=O)N[C@@H](CC(C)C)C(=O)N[C@H](C(=O)N[C@@H](Cc1c[nH]cn1)C(=O)N[C@@H](CCCNC(=N)N)C(=O)N[C@@H](CCCNC(=N)N)C(=O)N[C@@H](CCCNC(=N)N)C(=O)N[C@@H](Cc1c[nH]cn1)C(=O)O)[C@@H](C)CC [octominin] (H-GWLIRGAIHAGKAIHGLIHRRRH-OH)
viability at 24 h, 400 µg/mL [1]: 85.2%
minimum bactericidal concentration (MBC) (Acinetobacter baumannii): 10 µg/mL (≈ 3.81 µM)
minimum fungicidal concentration (MFC) (Candida albicans): 200 µg/mL (≈ 76.2 µM)
